Test results taken from patent US20080249156A1, “Combinations of statins and anti-obesity agent and glitazones” (priority 2007, published 2008).
Like-named read-outs stand apart in the source and are kept apart here.

How the values were obtained:
[1] = not given; remark: listed apart in the source
[2] = Example 1, patient on rosiglitazone 4 mg once a day
[3] = Example 2, patient on rosiglitazone 4 mg twice a day and metformin 500 mg twice daily
[4] = Example 3, patient on rosiglitazone 8 mg once daily and metformin 500 mg once daily

CN(CCOc1ccc(CC2SC(=O)NC2=O)cc1)c1ccccn1 (stereo not drawn) [rosiglitazone]
increase: body weight since beginning the rosiglitazone therapy [2] | body weight since beginning the rosiglitazone therapy [3] | body weight since beginning the rosiglitazone therapy [4] | total cholesterol since beginning the rosiglitazone therapy [1, 2] | total cholesterol since beginning the rosiglitazone therapy [1, 3] | total cholesterol since beginning the rosiglitazone therapy [1, 4]
